{"source": "patent US11311014B2", "about": "“Crystalline forms of ethyl[3-[2-chloro-4-fluoro-5-(1-methyl-6-trifluoromethyl-2,4-dioxo-1,2,3,4-tetrahydropyrimidin-3-yl)phenoxy]-2-pyridyloxy]acetate” (BASF SE, priority 2017, dated 2022)", "key": {"[1]": {"assay": "Stability of modifications suspended in solvent (conversion of crystal modification)", "format": "physicochemical", "protocol": "(§1) Studies on the Stability of the modifications of compound of formula (I)\nA mixture of forms A and B was suspended in ethanol at 25° C.\nForm C.II.1 (consisting of 30 wt. % of form A and 70 wt. % of form D) was suspended in ethanol at 25° C.\nForm C.II.1 (consisting of 30 wt. % of form A and 70 wt. % of form D) was suspended in iso-propanol at 25° C.\nForm CII.1 (consisting of 30 wt. % of form A and 70 wt. % of form D) was suspended in iso-propanol at 50° C."}, "[2]": {"assay": "Storage stability of dry powder at room temperature (conversion of crystal modification)", "format": "physicochemical", "conditions": "about 6 weeks", "from_the_text": "as §1"}}}
{"smiles": "CCOC(=O)COc1ncccc1Oc1cc(-n2c(=O)cc(C(F)(F)F)n(C)c2=O)c(F)cc1Cl", "note": "[Form C.II.1]", "values": [{"measurement": "Stability of the modification: phase conversion in suspension", "setting": "[1]; suspended in ethanol at 25° C., after 7 days", "result": "converted into form A"}, {"measurement": "Stability of the modification: phase conversion in suspension", "setting": "[1]; suspended in iso-propanol at 25° C., after 7 days", "result": "converted into form A"}, {"measurement": "Stability of the modification: phase conversion in suspension", "setting": "[1]; suspended in iso-propanol at 50° C., after 7 days", "result": "converted into form A"}]}
{"smiles": "CCOC(=O)COc1ncccc1Oc1cc(-n2c(=O)cc(C(F)(F)F)n(C)c2=O)c(F)cc1Cl", "note": "[form B, ethyl[3-[2-chloro-4-fluoro-5-(1-methyl-6-trifluoromethyl-2,4-dioxo-1,2,3,4-tetrahydropyrimidin-3-yl)phenoxy]-2-pyridyloxy]acetate]", "values": [{"measurement": "Stability of the modification: phase conversion during storage", "setting": "[2]", "result": "converts partially into form A"}]}
{"smiles": "CCOC(=O)COc1ncccc1Oc1cc(-n2c(=O)cc(C(F)(F)F)n(C)c2=O)c(F)cc1Cl", "note": "[mixture of forms A and B]", "values": [{"measurement": "Stability of the modification: phase conversion in suspension", "setting": "[1]; suspended in ethanol at 25° C., after 5 days", "result": "converted into form A"}]}
